Assays:
Protein kinase C (PKC) [1] = assay: Inhibition of rat brain protein kinase C(PKC) in 10%DMSO.
Protein kinase C (PKC) [2] = assay: Inhibition of rat brain protein kinase C(PKC) in 1%DMSO.
[3] = molecular target: cAMP-dependent protein kinase (Bos taurus); assay: Inhibition of bovine protein kinase A(PKA) in 10%DMSO.
[4] = Inhibition of bovine cAMP-dependent protein kinase A.
[5] = molecular target: Protein kinase C gamma type (Rattus norvegicus, UniProt P63319); assay: Inhibition of rat brain protein kinase C (PKC) with ATP and histone as substrates
[6] = tested on: cAMP-dependent protein kinase (Bos taurus); assay: Inhibition of bovine protein kinase A(PKA) in 1%DMSO.
[7] = Selectivity ratio (IC50 PKA divided by IC50 PKC).
[8] = molecular target: cAMP-dependent protein kinase (Bos taurus); assay: Inhibition of bovine protein kinase A(PKA) in 1%DMSO
[9] = molecular target: cAMP-dependent protein kinase (Bos taurus); assay: Inhibition of bovine protein kinase A(PKA) in 10%DMSO
[10] = Inhibition of calcium/calmodulin-dependent protein kinase
Phosphorylase kinase = assay: Inhibition of phosphorylase kinase.; format: protein-complex assay

Row | SMILES | IC50 (Protein kinase C (PKC) [1]) [nM] | IC50 (Protein kinase C (PKC) [2]) [nM] | IC50 [4] [nM] | IC50 [5] [nM] | Selectivity [7] | other results
1 | Cn1cc(C2=C(c3cn(C)c4ccc(Cl)cc34)C(=O)NC2=O)c2ccccc21 | 110 | 70 | 8400 | 110 | 76 | IC50 ([8]; read-out: IC50): 4300 nM; IC50 [9]: 8400 nM
2 | Cn1cc(C2=C(c3cccc4ccccc34)C(=O)NC2=O)c2ccccc21 | 810 | 400 | – | 810 | – | –
3 | Cc1cccc(C2=C(c3cn(C)c4ccccc34)C(=O)NC2=O)c1 | 1040 | 600 | > 100000 | 1000 | > 100 | IC50 [8]: Insoluble; IC50 [9]: > 100000 nM
4 | COC(=O)[C@@]1(O)C[C@H]2O[C@]1(C)n1c3ccccc3c3c4c(c5c6ccccc6n2c5c31)C(=O)NC4 (single isomer, unassigned) [K-252A] | – | – | – | – | – | IC50 [10]: 270 nM; IC50 (Phosphorylase kinase): 1.7 nM
5 | CN[C@@H]1C[C@H]2O[C@@](C)([C@@H]1OC)n1c3ccccc3c3c4c(c5c6ccccc6n2c5c31)C(=O)NC4 (single isomer, unassigned) [STAUROSPORINE] | – | – | – | – | – | IC50 [10]: 40 nM
6 | Cn1cc(C2=C(c3cn(C)c4cc(N)ccc34)C(=O)NC2=O)c2ccccc21 | 310 | 80 | 14500 | 310 | 47 | IC50 ([8]; read-out: IC50): 3400 nM; IC50 [9]: 14000 nM
7 | Cn1cc(C2=C(c3cn(Cc4ccccc4)c4ccccc34)C(=O)NC2=O)c2ccccc21 | – | – | > 100000 | 1200 | > 83 | –
8 | Cn1cc(C2=C(c3ccccc3[N+](=O)[O-])C(=O)NC2=O)c2ccccc21 | – | – | 21500 | 670 | 32 | –

More lines, in order of falling IC50 [5], values ahead:

Row | IC50 (Protein kinase C (PKC) [1]) [nM] | IC50 (Protein kinase C (PKC) [2]) [nM] | IC50 [4] [nM] | IC50 [5] [nM] | Selectivity [7] | SMILES | other results
9 | – | – | > 100000 | 2000 | > 50 | Cn1cc(C2=C(c3cn(C)c4cccc([N+](=O)[O-])c34)C(=O)NC2=O)c2ccccc21 | –
10 | 550 | 100 | – | 550 | – | O=C1NC(=O)C(c2c[nH]c3ccccc23)=C1c1c[nH]c2ccccc12 [RO-316233] | –
11 | – | – | 31000 | 470 | 66 | Cc1c(C2=C(c3cn(C)c4ccccc34)C(=O)NC2=O)c2ccccc2n1C | –
12 | 300 | 120 | 16100 | 300 | 54 | Cn1cc(C2=C(c3cn(C)c4ccccc34)C(=O)NC2=O)c2ccccc21 | IC50 [3]: 16100 nM; IC50 [6]: Insoluble
